Source: patent US7179805B2, “7-amino alkylidenyl-heterocyclic quinolones and naphthyridones” (Janssen Pharmaceutica N.V., priority 2003, dated 2007)

How the values were obtained:
[1] = tested on: Streptococcus pneumoniae ATCC 49619; assay: MIC, microdilution broth method (NCCLS); format: cell-based; conditions: ATCC49619; organism E: Streptococcus pneumoniae ATCC 49619; 35° C., 16–20 hours
Description: (§1) Minimal inhibitory concentration (MIC) has been an indicator of in vitro antibacterial activity widely used in the art. The in vitro antimicrobial activity of the compounds was determined by the microdilution broth method following the test method from the National Committee for Clinical Laboratory Standards (NCCLS). This method is described in the NCCLS Document M7-A4, Vol.17, No.2, “Methods for Dilution Antimicrobial Susceptibility Test for Bacteria that Grow Aerobically—Fourth Edition”, which is incorporated herein by reference.
(§2) In this method two-fold serial dilutions of drug in cation adjusted Mueller-Hinton broth are added to wells in microdilution trays. The test organisms are prepared by adjusting the turbidity of actively growing broth cultures so that the final concentration of test organism after it is added to the wells is approximately 5×10^4 CFU/well.
(§3) Following inoculation of the microdilution trays, the trays are incubated at 35° C. for 16–20 hours and then read. […] The amount of growth in the wells containing the test compound is compared with the amount of growth in the growth-control wells (no test compound) used in each tray. As set forth in Table 5, compounds of the present invention were tested against a variety of pathogenic bacteria resulting in a range of activities depending on the organism tested.

[2] = tested on: Staphylococcus aureus OC4172; assay: MIC, microdilution broth method (NCCLS); format: cell-based; conditions: organism A: Staphylococcus aureus OC4172; 35° C., 16–20 hours
Description: as §1, §2, §3

## NCC(F)=C1CCN(c2cc3c(cc2F)c(=O)c(C(=O)O)cn3C2CC2)CC1.O=C(O)C(F)(F)F [Compound 5, 7-[4-(2-Amino-1-fluoro-ethylidene)piperidin-1-yl]-1-cyclopropyl-6-fluoro-4-oxo-1,4-dihydroquinoline-3-carboxylic acid trifluoroacetic acid salt]
[1]
  MIC: 0.06 µg/mL

## CNCC=C1CCN(c2c(F)cc3c(=O)c(C(=O)O)cn(C4CC4)c3c2OC)CC1.O=C(O)C(F)(F)F [Compound 221, 1-Cyclopropyl-6-fluoro-8-methoxy-7-[4-(2-methylaminoethylidene)piperidin-1-yl]-4-oxo-1,4-dihydroquinoline-3-carboxylic acid trifluoroacetic acid salt]
[2]
  MIC: 0.12 µg/mL
[1]
  MIC: 0.5 µg/mL
